From article PMC6695355, “Alanine Scanning Studies of the Antimicrobial Peptide Aurein 1.2” (Probiotics and Antimicrobial Proteins, 2018)
Values after ≈ are worked out from the molar mass of the structure shown. Read-outs that look alike come from different tables or passages of the source. Where a SMILES comes first, the peptide text is derived from it.

Legend:
C. albicans ATCC 10231 = type: cell-based, Candida albicans; settings: ATCC 10231, 24 h
How it was run: (§1)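 MICs came from CLSI broth microdilution, 1–512 μg/mL, with S. aureus at 0.5 × 10^5 CFU/mL in MHB for 18 h and C. albicans at 2 × 10^3 CFU/mL in RPMI-1640 for 24 h, both at 37 °C. For MBEC, 24 h biofilms were treated for 24 h; for MBIC, compound was added with the inoculum for 24 h. Resazurin was read after 1 h, with endpoint ≤10% reduction versus controls.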

[1] = tested on: C. albicans ATCC 10231 biofilm; type: cell-based, Candida albicans; settings: ATCC 10231, 24 h
How it was run: as §1

[2] = tested on: C. albicans ATCC 10231 biofilm formation; type: cell-based, Candida albicans; settings: ATCC 10231, 24 h
How it was run: as §1

E. coli ATCC 25922 = type: cell-based, Escherichia coli; settings: ATCC 25922, 18 h
How it was run: (§2)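 Broth microdilution per CLSI, 1–512 μg/mL; bacteria 0.5 × 10^5 CFU/mL in MHB, 37 °C 18 h; C. albicans 2 × 10^3 CFU/mL in RPMI-1640, 24 h; MIC = lowest concentration visibly inhibiting growth. MBEC: 24-h biofilms, PBS-rinsed, compound 24 h at 37 °C, resazurin read after 1 h. MBIC: compound with inoculum 24 h, then resazurin 1 h; cut-off ≤10% reduction versus controls.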

[3] = tested on: E. coli ATCC 25922 biofilm; type: cell-based, Escherichia coli; settings: ATCC 25922, 24 h
How it was run: as §2

[4] = tested on: E. coli ATCC 25922 biofilm formation; type: cell-based, Escherichia coli; settings: ATCC 25922, 24 h
How it was run: as §2

P. aeruginosa ATCC 9027 = type: cell-based, Pseudomonas aeruginosa; settings: ATCC 9027, 18 h
How it was run: as §2

[5] = tested on: P. aeruginosa ATCC 9027 biofilm formation; type: cell-based, Pseudomonas aeruginosa; settings: ATCC 9027, 24 h
How it was run: as §2

[6] = tested on: P. aeruginosa ATCC 9027 biofilm; type: cell-based, Pseudomonas aeruginosa; settings: ATCC 9027, 24 h
How it was run: as §2

in vitro = in vitro ADME; settings: bovine, serum
How it was run: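 Peptides incubated in 25% (v/v) fetal bovine serum in PBS at 37 °C, quenched with ice-cold acetonitrile at t0 and 6 h. Intact peptide quantified by RP-HPLC-MS in selected ion recording mode; % remaining = peak area at 6 h / peak area at t0.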

[7] = tested on: S. aureus ATCC 25923 biofilm; type: cell-based, Staphylococcus aureus; settings: ATCC 25923, 24 h
How it was run: as §1

S. aureus ATCC 25923 = type: cell-based, Staphylococcus aureus; settings: ATCC 25923, 18 h
How it was run: as §1

[8] = tested on: S. aureus ATCC 25923 biofilm formation; type: cell-based, Staphylococcus aureus; settings: ATCC 25923, 24 h
How it was run: as §1

[9] = tested on: human red blood cells (RBCs); assay: Hemolysis assay; type: cell-based
How it was run: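 Fresh EDTA-anticoagulated human erythrocytes were PBS-washed and used at 4% (v/v) with peptide at 1–256 μg/mL in PBS for 1 h at 37 °C. Hemoglobin release in the supernatant was read at 540 nm. PBS set 0% and 1% Triton X-100 set 100% hemolysis; run in triplicate.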

[10] = tested on: E. faecalis PCM 2673 biofilm formation; type: cell-based, Enterococcus faecalis; settings: 24 h
How it was run: as §2

E. faecalis PCM 2673 = type: cell-based, Enterococcus faecalis; settings: PCM 2673, 18 h
How it was run: as §2

[11] = tested on: E. faecalis PCM 2673 biofilm; type: cell-based, Enterococcus faecalis; settings: 24 h
How it was run: as §2

Compound	MIC, C. albicans ATCC 10231 (C. albicans ATCC 10231)	MBEC, C. albicans ATCC 10231 [1]	MBIC, C. albicans ATCC 10231 [2]	MIC, E. coli ATCC 25922 (E. coli ATCC 25922)	MBEC, E. coli ATCC 25922 [3]	MBIC, E. coli ATCC 25922 [4]	MIC, P. aeruginosa ATCC 9027 (P. aeruginosa ATCC 9027)	MBIC, P. aeruginosa ATCC 9027 [5]	MBEC, P. aeruginosa ATCC 9027 [6]	remaining at 6 h, 0.125 mg/mL (in vitro)	MBEC, S. aureus ATCC 25923 [7]	MIC, S. aureus ATCC 25923 (S. aureus ATCC 25923)	MBIC, S. aureus ATCC 25923 [8]	Percentage of hemolysis at 1 μg/mL ([9]; red cells of human, 1 h)	Percentage of hemolysis at 4 μg/mL ([9]; red cells of human, 1 h)	Percentage of hemolysis at 8 μg/mL ([9]; red cells of human, 1 h)	Percentage of hemolysis at 32 μg/mL ([9]; red cells of human, 1 h)	Percentage of hemolysis at 64 μg/mL ([9]; red cells of human, 1 h)	Percentage of hemolysis at 128 μg/mL ([9]; red cells of human, 1 h)	Percentage of hemolysis at 256 μg/mL ([9]; red cells of human, 1 h)	also measured
CC[C@H](C)[C@H](NC(=O)[C@H](CCCCN)NC(=O)[C@H](CCCCN)NC(=O)[C@@H](NC(=O)[C@@H](NC(=O)[C@H](CC(=O)O)NC(=O)[C@H](Cc1ccccc1)NC(=O)[C@H](CC(C)C)NC(=O)CN)[C@@H](C)CC)[C@@H](C)CC)C(=O)N[C@@H](C)C(=O)N[C@@H](C)C(=O)N[C@@H](CO)C(=O)N[C@@H](Cc1ccccc1)C(N)=O [Peptide E11A] (H-GLFDIIKKIAASF-NH2)	32 µg/mL (≈ 22.5 µM)	> 512 µg/mL	4 µg/mL	16 µg/mL (≈ 11.3 µM)	64 µg/mL	16 µg/mL	64 µg/mL (≈ 45 µM)	64 µg/mL	512 µg/mL	17%	16 µg/mL	32 µg/mL (≈ 22.5 µM)	32 µg/mL	0.1%	0.2%	0.1%	0.4%	2.9%	11.9%	40.2%	Percentage of hemolysis at 2 μg/mL [9]: 17.4%; Percentage of hemolysis at 16 μg/mL ([9]; red cells of human, 1 h, 16): 0.1%; MBIC, E. faecalis PCM 2673 [10]: 32 µg/mL; MIC, E. faecalis PCM 2673 (E. faecalis PCM 2673): 32 µg/mL (≈ 22.5 µM); MBEC, E. faecalis PCM 2673 [11]: > 512 µg/mL
CC[C@H](C)[C@H](NC(=O)[C@H](CCCCN)NC(=O)[C@H](CCCCN)NC(=O)[C@@H](NC(=O)[C@@H](NC(=O)[C@H](CC(=O)O)NC(=O)[C@H](Cc1ccccc1)NC(=O)[C@H](CC(C)C)NC(=O)CN)[C@@H](C)CC)[C@@H](C)CC)C(=O)N[C@@H](C)C(=O)N[C@@H](CCC(=O)O)C(=O)N[C@@H](CO)C(=O)N[C@@H](C)C(N)=O [Peptide F13A] (H-GLFDIIKKIAESA-NH2)	512 µg/mL (≈ 365 µM)	> 512 µg/mL	8 µg/mL	128 µg/mL (≈ 91.2 µM)	512 µg/mL	>512 µg/mL	> 512 µg/mL	>512 µg/mL	> 512 µg/mL	54%	128 µg/mL	> 512 µg/mL	>512 µg/mL	0.3%	0.5%	0.4%	0.0%	0.0%	0.0%	0.0%	Percentage of hemolysis at 16 μg/mL [9]: 0,0%; Hemolysis over the whole concentration range ([9]; 1–256 μg/mL, 4% human RBCs in PBS, 1 h, 37 °C): did not cause the lysis of RBCs; Percentage of hemolysis at 2 μg/mL ([9]; red cells of human, 1 h, 2): 0.6%; MBIC, E. faecalis PCM 2673 [10]: >512 µg/mL; MIC, E. faecalis PCM 2673 (E. faecalis PCM 2673): 128 µg/mL (≈ 91.2 µM); MBEC, E. faecalis PCM 2673 [11]: > 512 µg/mL
CC[C@H](C)[C@H](NC(=O)[C@H](CCCCN)NC(=O)[C@H](CCCCN)NC(=O)[C@@H](NC(=O)[C@@H](NC(=O)[C@H](CC(=O)O)NC(=O)[C@H](Cc1ccccc1)NC(=O)[C@H](C)NC(=O)CN)[C@@H](C)CC)[C@@H](C)CC)C(=O)N[C@@H](C)C(=O)N[C@@H](CCC(=O)O)C(=O)N[C@@H](CO)C(=O)N[C@@H](Cc1ccccc1)C(N)=O [Peptide L2A] (H-GAFDIIKKIAESF-NH2)	256 µg/mL (≈ 178 µM)	> 512 µg/mL	8 µg/mL	256 µg/mL (≈ 178 µM)	512 µg/mL	512 µg/mL	512 µg/mL (≈ 356 µM)	> 512 µg/mL	> 512 µg/mL	6%	> 512 µg/mL	> 512 µg/mL	> 512 µg/mL	0.3%	0.4%	0.2%	0.0%	0.0%	0.0%	0.0%	Percentage of hemolysis at 2 μg/mL ([9]; red cells of human, 1 h, 2): 0.6%; Percentage of hemolysis at 16 μg/mL ([9]; red cells of human, 1 h, 16): 0.0%; MBIC, E. faecalis PCM 2673 [10]: > 512 µg/mL; MIC, E. faecalis PCM 2673 (E. faecalis PCM 2673): 512 µg/mL (≈ 356 µM); MBEC, E. faecalis PCM 2673 [11]: > 512 µg/mL
CC[C@H](C)[C@H](NC(=O)[C@H](C)NC(=O)[C@H](CC(=O)O)NC(=O)[C@H](Cc1ccccc1)NC(=O)[C@H](CC(C)C)NC(=O)CN)C(=O)N[C@@H](CCCCN)C(=O)N[C@@H](CCCCN)C(=O)N[C@H](C(=O)N[C@@H](C)C(=O)N[C@@H](CCC(=O)O)C(=O)N[C@@H](CO)C(=O)N[C@@H](Cc1ccccc1)C(N)=O)[C@@H](C)CC [Peptide I5A] (H-GLFDAIKKIAESF-NH2)	256 µg/mL (≈ 178 µM)	512 µg/mL	4 µg/mL	256 µg/mL (≈ 178 µM)	512 µg/mL	512 µg/mL	512 µg/mL (≈ 356 µM)	> 512 µg/mL	> 512 µg/mL	71%	> 512 µg/mL	> 512 µg/mL	> 512 µg/mL	0.2%	0.2%	0.0%	0.0%	0.1%	0.0%	1.1%	Percentage of hemolysis at 2 μg/mL ([9]; red cells of human, 1 h, 2): 0.3%; Percentage of hemolysis at 16 μg/mL ([9]; red cells of human, 1 h, 16): 0.0%; MBIC, E. faecalis PCM 2673 [10]: 512 µg/mL; MIC, E. faecalis PCM 2673 (E. faecalis PCM 2673): 128 µg/mL (≈ 89 µM); MBEC, E. faecalis PCM 2673 [11]: > 512 µg/mL
